In US8999964B2, “TGR5 modulators and methods of use thereof” (Intercept Pharmaceuticals, Inc., priority 2008, dated 2015):
pEC50, pIC50: −log10 of the molar value. Where a name gives a salt, the structure may show the parent alone.

How the values were obtained:
hTGR5 [1] = target: T1, hTGR5 (Homo sapiens, UniProt Q8TDU6); experiment: cell-based; set-up: Human intestinal cell lines (NCI-H716) were plated in 96-well plates; endogenous in cells; settings: Table 1; CRE-Luc reporter, HEK293T; read-out: Transactivation Assay hTGR5 EC50
T1 sequence (Q8TDU6 1-330): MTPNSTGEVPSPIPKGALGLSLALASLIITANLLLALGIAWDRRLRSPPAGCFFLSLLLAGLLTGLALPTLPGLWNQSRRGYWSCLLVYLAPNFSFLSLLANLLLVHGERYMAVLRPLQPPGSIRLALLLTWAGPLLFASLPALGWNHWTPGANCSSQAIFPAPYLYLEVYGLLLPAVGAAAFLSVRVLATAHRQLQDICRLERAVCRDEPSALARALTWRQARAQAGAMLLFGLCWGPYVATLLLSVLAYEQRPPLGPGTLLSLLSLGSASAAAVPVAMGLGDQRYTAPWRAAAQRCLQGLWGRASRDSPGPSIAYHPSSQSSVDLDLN
Protocol: HEPG2 and HEK293T cells were cultured in E-MEM and DMEM respectively, either supplemented with 1% penicillin/streptomycin, 1% L-glutamine and 10% fetal bovine serum. […] Cells were grown at 37° C. in 5% CO2. All the transfections were made using 5:2 Fugene HD Trasfection reagent (μl) to DNA (μg) respectively (Roche). […] Transient transfections were performed using 100 ng of reporter vector pGL4.29[luc2P/CRE/Hygro] […] The pGEM vector was added to normalize the amounts of DNA transfected in each assay (2 μg). […] The cells were then lysed by adding 75 μl of Dual-Glo Luciferase Reagent (Promega) to 75 μl of medium containing cells/well. Renilla luciferase activity was measured by adding volume:volume of Dual-Glo Stop & Glo reagent and original culture medium. Luciferase activities were expressed as ratio between luciferase unit and renilla luciferase unit. Each data point is the average of triplicate assays. Each experiment was repeated at least three times.
(§1) After subtracting the average value of the basal (vehicle-treated) condition, values were applied to EC50 and/or efficacy determinations. Calculation of average EC50 and comparison of the EC50 between different compounds were done after transformation to logarithms.

hTGR5 [2] = target: T1, hTGR5; experiment: FRET assay (intracellular cAMP) in NCI-H716 cells; assay type: cell-based; set-up: Human intestinal cell lines (NCI-H716) were plated in 96-well plates; endogenous in cells; host or cells: NCI-H716
Protocol: The receptor binding assay was performed by measuring the level of cyclic AMP (cAMP) using FRET assay. Human intestinal cell lines (NCI-H716) were plated in 96-well plates coated with 0.75 mg/ml Matrigel (BD Biosciences) according to manufacturer's instructions just prior to use, at a density of 12×10^3 cells/well in DMEM supplemented with 10% (v/v) FBS, 100 units/ml penicillin and 100 μg/ml streptomycin sulfate, and cultured for 24 h, which allowed cell adhesion to the bottom of the plate. The cells were washed twice with PBS and medium was exchanged for cAMP assay medium [OPTIMEM containing 0.1% (w/v) BSA and 1 mM 3-isobutyl-1-methylxanthine (IBMX)]. […] The level of intracellular cAMP was determined with Lance kit (PerkinElmer). Litocholic acid was used as control ligand. Z′ factor was used to validate assays. Non linear regression curves, without constraints, were performed by using four parameter equation and GraphPad Prism Software (GraphPad Inc.), to obtain the EC50 values.
as §1

in vitro = settings: human
bovine serum albumin = bovine serum albumin (Bos taurus, UniProt P02769); experiment: Albumin binding by equilibrium dialysis; assay type: in vitro ADME; set-up: 5% bovine serum albumin-saline solution (pH 7.2); from tissue; host or cells: bovine serum (by the name of the product); settings: 100 μM BA in 5% bovine serum albumin-saline, pH 7.2
Protocol: The extent of albumin binding was evaluated by equilibrium dialysis at a fixed BA-albumin ratio. Each BA was dissolved at a concentration of 100 μM in 5% bovine serum albumin-saline solution (pH 7.2) and left to stand for 24 h at 25° C. Two milliliters of this solution was dialyzed in cellulose sacs having a molecular weight cut-off of 12,000-14,000 Dalton against 25 ml of saline solution. The system was equilibrated by gently shaking for 72 h at 25° C. BA concentrations of the dialyzed solution (corresponding to the free unbound fraction) and of the starting solution were determined with HPLC-ESI-MS/MS in the same conditions of the previous analysis.
The percentage of albumin binding was calculated from the initial BA concentration and from the unbound concentration in the dialyzed fraction.

PXR = target: T2, PXR (Homo sapiens, UniProt O75469); experiment: PXR ligands competition assay (binding assay); settings: Table 6
T2 sequence (O75469 1-434): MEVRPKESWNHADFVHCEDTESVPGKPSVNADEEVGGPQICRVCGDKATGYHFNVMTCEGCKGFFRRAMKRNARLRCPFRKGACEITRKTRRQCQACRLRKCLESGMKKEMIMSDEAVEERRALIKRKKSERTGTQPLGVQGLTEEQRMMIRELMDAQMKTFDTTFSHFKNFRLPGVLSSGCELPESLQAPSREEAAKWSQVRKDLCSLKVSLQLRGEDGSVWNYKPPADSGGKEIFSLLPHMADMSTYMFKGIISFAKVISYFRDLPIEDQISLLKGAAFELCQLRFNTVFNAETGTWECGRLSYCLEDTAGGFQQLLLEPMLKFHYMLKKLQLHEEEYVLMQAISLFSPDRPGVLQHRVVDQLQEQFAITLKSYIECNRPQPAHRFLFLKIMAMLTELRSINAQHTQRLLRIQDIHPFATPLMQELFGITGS

CAR = target: T3, CAR (Homo sapiens, UniProt Q14994); experiment: CAR coactivator recruitment (Lanthascreen); assay type: biochemical; settings: Table 6; coactivator recruitment (Lanthascreen)
T3 construct: purchased Invitrogen
T3 sequence (Q14994 109-352 limits assumed): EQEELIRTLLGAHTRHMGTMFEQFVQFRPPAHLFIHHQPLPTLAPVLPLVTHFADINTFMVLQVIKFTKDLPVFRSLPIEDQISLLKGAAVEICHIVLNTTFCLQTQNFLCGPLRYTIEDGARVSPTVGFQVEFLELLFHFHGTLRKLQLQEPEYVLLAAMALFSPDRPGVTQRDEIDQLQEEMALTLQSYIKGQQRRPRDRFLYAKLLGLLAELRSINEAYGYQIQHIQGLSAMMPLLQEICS

[3] = Bile fistula rat, duodenal (id) infusion: bile flow, biliary secretion, metabolism; settings: for Intestinal absorption: biliary secretion id versus iv; for Conc. in bile: rat bile; for Secretion (biliary): rat
intestinal bacteria = experiment: In vitro metabolic stability in human stools culture; assay type: in vitro ADME
Protocol: Homogenized fresh human stools (500 mg) were transferred into sterile vials to which 5 mL of sterilized chopped meat-glucose medium (Scott Lab., Fiskville, R.I.) was added. BAs were then added at a final concentration of 0.05 mM. Vials were incubated at 37° C.; then, at 0, 1, 2, 4, 8 and 24 h after the addition of the BA, the reaction was stopped with 150 μL of 30% KOH. The samples were centrifuged at 3500 rpm for 10 min; from the supernatant the BA were isolated by C-18 solid-phase extraction and analyzed by TLC and HPLC-ES-MS/MS.
Thin-layer chromatography (TLC), utilizing silica gel 0.25 mm thickness plates (Merck, Darmstat, Germany), was employed as the first screening test. The solvent system used for the separation of conjugated BA was composed of propionic acid/isoamyl acetate/water/N-propanol (3:4:1:2, v/v/v/v; solvent I), and that of the unconjugated BA was acetic acid/carbon tetrachloride/isopropyl ether/isoamyl acetate/water/N-propanol/benzene (1:4:6:8:2:2, v/v/v/v/v/v; solvent II).

[4] = duodenal infusion 1 μmol/kg/min 1 h, 90 min

bovine serum albumin, sequence (P02769 25-607): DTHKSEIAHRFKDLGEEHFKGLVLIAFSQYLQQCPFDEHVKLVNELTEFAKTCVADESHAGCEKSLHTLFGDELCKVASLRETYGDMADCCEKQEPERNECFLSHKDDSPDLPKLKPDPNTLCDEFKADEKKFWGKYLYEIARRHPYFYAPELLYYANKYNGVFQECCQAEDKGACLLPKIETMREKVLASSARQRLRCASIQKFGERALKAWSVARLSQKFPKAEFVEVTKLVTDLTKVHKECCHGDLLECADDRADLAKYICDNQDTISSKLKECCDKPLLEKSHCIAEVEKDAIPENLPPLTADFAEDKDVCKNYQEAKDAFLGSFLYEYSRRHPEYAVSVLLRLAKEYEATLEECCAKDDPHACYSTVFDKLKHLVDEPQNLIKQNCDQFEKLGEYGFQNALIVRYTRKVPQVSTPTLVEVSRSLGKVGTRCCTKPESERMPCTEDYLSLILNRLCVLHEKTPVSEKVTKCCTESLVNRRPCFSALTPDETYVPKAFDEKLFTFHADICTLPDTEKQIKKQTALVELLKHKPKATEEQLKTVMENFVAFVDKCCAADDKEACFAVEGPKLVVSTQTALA

With `CC[C@H]1[C@@H](O)[C@@H]2[C@H](CC[C@]3(C)[C@@H]([C@H](C)CCC(=O)O)[C@@H](O)C[C@@H]23)[C@@]2(C)CC[C@@H](O)C[C@@H]12` [Compound 10, 3α,7α,16β-trihydroxy-6α-ethyl-5β-cholan-24-oic acid sodium salt] the pEC50 (hTGR5 [1]) was 7.40, the pEC50 (hTGR5 [2]; FRET (cAMP) NCI-H716 hTGR5 EC50, Table 1, NCI-H716 cells) was 6.19 and the pEC50 (hTGR5 [2]; TGR5 Activation EC50, Table 6, cAMP level on NCI-H716) was 6.22. The EC50 at 4 h (in vitro) was > 1000 µM, the “Albumin Binding” value (bovine serum albumin) was 83% and the pIC50 (PXR) was 4.19. The “CAR Activation EC50” value (CAR) was “No activity”, the “Metabolism, species in bile after id administration” value ([3]; bile fistula rat, mass spectrometry) was “recovered as such and mainly metabolised to form the taurine conjugates” and the Intestinal absorption ([3]; bile fistula rat, listed as compound 10, sodium salt) was “poor intestinal absorption”. The Intestinal absorption ([3]; bile fistula rat, sodium salt) was “efficient”, the Conc. in bile [3, 4] was 10 µM and the “Secretion (biliary)” value [3, 4] was 0.0004 µmol/kg/min. For the same compound, the “Choleretic effect (bile flow)” value ([3]; duodenal infusion 1 μmol/kg/min, 1 hour, bile fistula rat) was “not choleretic”, the Conc. in bile ([3]; duodenal infusion, 120 min) was 70 µM and the Conc. in bile ([3]; duodenal infusion, 150 min) was 390 µM. For the same compound, the Conc. in bile ([3]; duodenal infusion, 180 min) was 140 µM, the Conc. in bile ([3]; duodenal infusion, 210 min) was 90 µM and the Conc. in bile ([3]; duodenal infusion, 240 min) was 30 µM. For the same compound, the Conc. in bile ([3]; duodenal infusion, 270 min) was 20 µM, the Conc. in bile ([3]; duodenal infusion, 300 min) was 20 µM and the “Secretion (biliary)” value ([3]; duodenal infusion, 120 min) was 0.003 µmol/kg/min. The “Secretion (biliary)” value ([3]; duodenal infusion, 150 min) was 0.019 µmol/kg/min, the “Secretion (biliary)” value ([3]; duodenal infusion, 180 min) was 0.003 µmol/kg/min and the “Secretion (biliary)” value ([3]; duodenal infusion, 210 min) was 0.004 µmol/kg/min. For the same compound, the “Secretion (biliary)” value ([3]; duodenal infusion, 240 min) was 0.001 µmol/kg/min, the “Secretion (biliary)” value ([3]; duodenal infusion, 270 min) was 0.001 µmol/kg/min and the “Secretion (biliary)” value ([3]; duodenal infusion, 300 min) was 0.001 µmol/kg/min. The “Compound recovered unmodified in human stool cultures” value (intestinal bacteria; after 24 hour incubation, 0.05 mM, 37° C.) was “more than 85%” and the “Side chain stability to intestinal bacteria” value (intestinal bacteria; human stool cultures) was “very stable for side chain metabolism”.
